Measured values as given in patent US10633376B2, “Crystalline forms of JAK1-selective inhibitor, processes for preparation and use thereof” (Crystal Pharmaceutical (Suzhou) Co., Ltd., priority 2016, dated 2020).
In brackets after ≈: the same amount, converted by molar mass. Entries after “also recorded” stand apart in the source; their conditions may differ. Where two headings read alike, the source gives them in different places.

Legend:
[1] = prior art patents; cited from earlier work
[2] = 92.5% humidity for 5 days and 10 days, XRPD; cited from earlier work
[3] = Solubility comparison study, saturated solutions measured by HPLC; assay type: physicochemical; details: for Solubility in FaSSIF 1 h: FaSSIF pH=6.5, 1 h; for Solubility in FaSSIF 4 h: FaSSIF pH=6.5, 4 h; for Solubility in FaSSIF 24 h: FaSSIF pH=6.5, 24 h
Experimental: Saturated solutions of Form CS1, Form CS2 of the present disclosure and Pattern 4 in patent CN105960407A (hereinafter referred to as patent Pattern 4) were prepared in SGF (simulated gastric fluids), FeSSIF (fed state simulated intestinal fluids, pH=5.0), FaSSIF (fasted state simulated intestinal fluids, pH=6.5) and pure water. After equilibrated for 1 h, 4 h and 24 h, concentrations of the saturated solutions were measured by HPLC.

[4] = Mechanical stability study, XRPD before and after grinding; assay type: physicochemical
Text: XRPD was applied to test the crystalline forms of Form CS2, Form CS3 and Pattern 4 in patent CN105960407A before and after grinding. The test results were shown in FIG. 20, FIG. 21 and FIG. 22.

[5] = Hygroscopicity by dynamic vapor sorption (DVS); assay type: physicochemical
Experimental: Dynamic Vapor Sorption (DVS) is measured via a SMS (Surface Measurement Systems Ltd.) intrinsic DVS instrument. Its control software is DVS-Intrinsic control software, and its analysis software is DVS-Intrinsic Analsis software. Typical Parameters for DVS test are as follows:
Gas and flow rate: N2, 200 mL/min
RH range: 0% RH to 95% RH
Dynamic vapor sorption (DVS) was applied to test hygroscopicity of Form CS2 and Pattern 4 in patent CN105960407A (hereinafter referred to as patent Pattern 4) on about 10 mg of samples. The weight gains at each relative humidity were recorded in a cycle of 0-95%-0 RH.

[6] = Stability study of crystalline form on storage, XRPD; assay type: physicochemical; details: 3 weeks
Experimental: Form CS1 of the present disclosure was stored under 25° C./60% RH and 40° C./75% RH for 3 weeks. Form CS2 of the present disclosure was stored under 25° C./60% RH, 40° C./75% RH and 60° C./75% RH for 3 weeks.

[7] = clinical trials by Gilead; cited from earlier work

For `O=C(Nc1nc2cccc(-c3ccc(CN4CCS(=O)(=O)CC4)cc3)n2n1)C1CC1` [Form D of free form], the Solubility in water [1] is given as “solubility in water is 55.26 μg/mL. The yield is low and is” and the Stability [2] is given as “Stability is poor. XRPD is tested after being placed at”.

In the case of `O=C(Nc1nc2cccc(-c3ccc(CN4CCS(=O)(=O)CC4)cc3)n2n1)C1CC1` [Form B of free form], the Solubility in water [1] is given as “The solubility in water is 41.28 μg/mL. The yield is low,” and the Stability [2] is given as “Stability is poor. Sample was tested by XRPD after being”.

In the case of `O=C(Nc1nc2cccc(-c3ccc(CN4CCS(=O)(=O)CC4)cc3)n2n1)C1CC1` [Form CS2], the “Solubility in FaSSIF 1 h” value [3] is reported as 0.05 mg/mL (≈ 118 µM), the “Solubility in FaSSIF 4 h” value [3] is reported as 0.05 mg/mL (≈ 118 µM) and the “Solubility in FaSSIF 24 h” value [3] is reported as 0.04 mg/mL (≈ 94 µM). For the same molecule, the “Solubility in FeSSIF 1 h” value ([3]; FeSSIF pH=5.0, 1 h) was 0.09 mg/mL (≈ 212 µM), the “Solubility in FeSSIF 4 h” value ([3]; FeSSIF pH=5.0, 4 h) was 0.10 mg/mL (≈ 235 µM) and the “Solubility in FeSSIF 24 h” value ([3]; FeSSIF pH=5.0, 24 h) was 0.08 mg/mL (≈ 188 µM). For the same molecule, the “Solubility in SGF 1 h” value ([3]; SGF (pH=1.8)) was 1.31 mg/mL (≈ 3080 µM), the “Solubility in SGF 4 h” value ([3]; SGF (pH=1.8), 4 h) was 1.32 mg/mL (≈ 3100 µM) and the “Solubility in water 1 h” value ([3]; pure water) was 0.04 mg/mL (≈ 94 µM). For the same molecule, the “Solubility in water 24 h” value ([3]; pure water, 24 h) was 0.04 mg/mL (≈ 94 µM), the solubility at 4 h ([3]; pure water, water, thermodynamic from solid, pure water, 4 h, read-out: Solubility in water 4 h) was 40 µg/mL (≈ 94 µM) and the solubility at 24 h ([3]; simulated gastric fluid (SGF), pH 1.8, simulated gastric fluid, thermodynamic from solid, SGF (pH=1.8), 24 h, read-out: Solubility in SGF 24 h) was 560 µg/mL (≈ 1320 µM). The “Mechanical stability (crystalline form after grinding)” value [4] was “better mechanical stabilities; also recorded: don't change after grinding; also recorded: without crystal transformation observed during grinding”, the Hygroscopicity class ([5]; 80% RH, Chinese Pharmacopoeia 2015 definition) was “almost non-hygroscopic; also recorded: almost no hygroscopic” and the “Form change after DVS” value ([5]; XRPD before and after DVS cycle 0-95%-0 RH) was “no form change was observed”. The Solid form change ([6]; 25° C./60% RH) was “doesn't change; also recorded: No form change of Form CS2”, the Solid form change ([6]; 40° C./75% RH) was “doesn't change; also recorded: No form change of Form CS2” and the Solid form change ([6]; 60° C./75% RH) was “doesn't change; also recorded: No form change of Form CS2”.

In the case of `O=C(Nc1nc2cccc(-c3ccc(CN4CCS(=O)(=O)CC4)cc3)n2n1)C1CC1` [Pattern 4, reference compound], the “Solubility in FaSSIF 1 h” value ([3]; listed as Patent Pattern 4) is reported as 0.02 mg/mL (≈ 47 µM), the “Solubility in FaSSIF 4 h” value ([3]; listed as Patent Pattern 4) is reported as 0.02 mg/mL (≈ 47 µM) and the “Solubility in FaSSIF 24 h” value ([3]; listed as Patent Pattern 4) is reported as 0.02 mg/mL (≈ 47 µM). For the same molecule, the “Solubility in FeSSIF 1 h” value ([3]; FeSSIF pH=5.0, 1 h, listed as Patent Pattern 4) was 0.03 mg/mL (≈ 70.5 µM), the “Solubility in FeSSIF 4 h” value ([3]; FeSSIF pH=5.0, 4 h, listed as Patent Pattern 4) was 0.03 mg/mL (≈ 70.5 µM) and the “Solubility in FeSSIF 24 h” value ([3]; FeSSIF pH=5.0, 24 h, listed as Patent Pattern 4) was 0.03 mg/mL (≈ 70.5 µM). For the same molecule, the “Solubility in SGF 1 h” value ([3]; SGF (pH=1.8), listed as Patent Pattern 4) was 1.02 mg/mL (≈ 2400 µM), the “Solubility in SGF 4 h” value ([3]; SGF (pH=1.8), 4 h, listed as Patent Pattern 4) was 1.07 mg/mL (≈ 2510 µM) and the “Solubility in SGF 24 h” value ([3]; SGF (pH=1.8), 24 h, listed as Patent Pattern 4) was 0.46 mg/mL (≈ 1080 µM). For the same molecule, the “Solubility in water 1 h” value ([3]; pure water, listed as Patent Pattern 4) was 0.02 mg/mL (≈ 47 µM), the “Solubility in water 4 h” value ([3]; pure water, 4 h, listed as Patent Pattern 4) was 0.01 mg/mL (≈ 23.5 µM) and the “Solubility in water 24 h” value ([3]; pure water, 24 h, listed as Patent Pattern 4) was 0.01 mg/mL (≈ 23.5 µM). For the same molecule, the “Mechanical stability (crystalline form after grinding)” value [4] was “poor mechanical stability”.

In the case of `O=C(Nc1nc2cccc(-c3ccc(CN4CCS(=O)(=O)CC4)cc3)n2n1)C1CC1` [Form H of free form], the Solubility in water [1] is given as “solubility in water is 12.77 μg/mL”.

In the case of `O=C(Nc1nc2cccc(-c3ccc(CN4CCS(=O)(=O)CC4)cc3)n2n1)C1CC1` [Form C of free form], the Solubility in water [1] is listed as “The solubility in water is 42.22 μg/mL. The yield is low” and the Stability [2] is listed as “Stability is poor. Sample was tested by XRPD after being”.

In the case of `O=C(Nc1nc2cccc(-c3ccc(CN4CCS(=O)(=O)CC4)cc3)n2n1)C1CC1` [Filgotinib, N-[5-[4-[(1,1-dioxo-1-thiomorpholin-4-yl)methyl]phenyl][1,2,4]triazolo [1,5-a]pyridin-2-yl]cyclopropanecarboxamide], the “Anemia and abnormal increase in low density lipoprotein (LDL)” value [7] is listed as “does not cause an anemia and abnormal increase in low density lipoprotein (LDL)”.

In the case of `O=C(Nc1nc2cccc(-c3ccc(CN4CCS(=O)(=O)CC4)cc3)n2n1)C1CC1` [Form F of free form], the Solubility in water [1] is listed as “The solubility is low. The solubility in water is 50.98 μg/mL”.

With `O=C(Nc1nc2cccc(-c3ccc(CN4CCS(=O)(=O)CC4)cc3)n2n1)C1CC1` [Form CS1] the “Solubility in FaSSIF 1 h” value [3] was 0.12 mg/mL (≈ 282 µM), the “Solubility in FaSSIF 4 h” value [3] was 0.11 mg/mL (≈ 259 µM) and the “Solubility in FaSSIF 24 h” value [3] was 0.12 mg/mL (≈ 282 µM). For the same molecule, the “Solubility in SGF 1 h” value ([3]; SGF (pH=1.8)) was 3.23 mg/mL (≈ 7590 µM), the “Solubility in SGF 4 h” value ([3]; SGF (pH=1.8), 4 h) was 3.30 mg/mL (≈ 7760 µM) and the “Solubility in SGF 24 h” value ([3]; SGF (pH=1.8), 24 h) was 0.82 mg/mL (≈ 1930 µM). The solubility at 1 h ([3]; fed state simulated intestinal fluid (FeSSIF), pH 5, fessif, thermodynamic from solid, FeSSIF pH=5.0, 1 h) was 200 µg/mL (≈ 470 µM), the solubility at 4 h ([3]; fed state simulated intestinal fluid (FeSSIF), pH 5, fessif, thermodynamic from solid, FeSSIF pH=5.0, 4 h, read-out: Solubility in FeSSIF 4 h) was 200 µg/mL (≈ 470 µM) and the solubility at 24 h ([3]; fed state simulated intestinal fluid (FeSSIF), pH 5, fessif, thermodynamic from solid, FeSSIF pH=5.0, 24 h, read-out: Solubility in FeSSIF 24 h) was 250 µg/mL (≈ 588 µM). The “Solubility in water 1 h” value ([3]; pure water) was 0.12 mg/mL (≈ 282 µM), the “Solubility in water 4 h” value ([3]; pure water, 4 h) was 0.09 mg/mL (≈ 212 µM) and the “Solubility in water 24 h” value ([3]; pure water, 24 h) was 0.21 mg/mL (≈ 494 µM). The Solid form change ([6]; 25° C./60% RH) was “doesn't change; also recorded: No form change of Form CS1” and the Solid form change ([6]; 40° C./75% RH) was “doesn't change; also recorded: No form change of Form CS1”.

For `O=C(Nc1nc2cccc(-c3ccc(CN4CCS(=O)(=O)CC4)cc3)n2n1)C1CC1` [Form E of free form], the Stability [2] is given as “Stability is poor. XRPD is tested after being placed at”.
